Test results from patent publication US20070129252A1, “2-Halo-6-alkylphenyl-substituted spirocyclic tetramic acid derivatives” (BAYER CROPSCIENCE AKTIENGESELLSCHAFT, priority 2003, published 2007).

How the values were obtained:
Format in all cases: in vivo
Avena sativa = assay: Herbicidal post-emergence action (Example M); conditions: greenhouse, 320 g of a.i./ha, about 3 weeks
Procedure: (§1) Herbicidal Post-Emergence Action
(§2) Seeds of monocotyledonous and dicotyledonous weed and crop plants are placed into sandy loam in wood fibre pots, covered with soil and cultivated in a greenhouse under good growth conditions. 2-3 weeks after sowing, the test plants are treated at the one-leaf stage. The test compounds, formulated as wettable powders (WP), are, in various dosages with a water application rate of 600 l/ha (converted), with 0.2% of wetting agent added, sprayed onto the green parts of the plants. After the test plants were kept in the greenhouse under optimum growth conditions for about 3 weeks, the effect of the preparations is rated visually in comparison to untreated controls (herbicidal effect in percent (%): 100% effect=the plants have died, 0% effect=like control plants).

Lolium [1] = assay: Herbicidal post-emergence action (Example M); conditions: greenhouse, 320 g of a.i./ha, about 3 weeks
Procedure: as §1, §2

Setaria [2] = assay: Herbicidal post-emergence action (Example M); conditions: greenhouse, 320 g of a.i./ha, about 3 weeks
Procedure: as §1, §2

summer wheat = assay: Herbicidal post-emergence action, vessel trials with cereals in the greenhouse, use of safeners (Example N); conditions: without safener
Procedure: as §1
(§3) Seeds of monocotyledonous and dicotyledonous weed and crop plants are placed into sandy loam in wood fibre pots or in plastic pots, covered with soil and cultivated in a greenhouse, during the vegetation period also outdoors outside of the greenhouse, under good growth conditions. 2-3 weeks after sowing, the test plants are treated at the one- to three-leaf stage. The test compounds, formulated as wettable powders (WP) or emulsifiable concentrates (EC) are, in various dosages with a water application rate of 300 l/ha (converted), with wetting agent (0.2 to 0.3%) added, sprayed onto the plants and the surface of the soil. 3-4 weeks after the treatment of the test plants, the effect of the preparations is rated visually in comparison to untreated controls (herbicidal effect in percent (%): 100% effect=the plants have died, 0% effect=like control plants).
(§4) If it is additionally to be tested as to whether safeners can improve the plant compatibility of test substances in the case of crop plants, the following options are used for applying the safener: • seeds of the crop plants are, before sowing, dressed with the safener substance (the amount of safener is stated in percent, based on the weight of the seed) • before the application of the test substances, the crop plants are sprayed with the safener at a certain application rate per hectare (usually 1 day before the application of the test substances) • the safener is applied together with the test substance as a tank mix (the amount of safener is stated in g/ha or as a ratio, based on the herbicide).
(§5) By comparing the effect of the test substances on crop plants without or with safener treatment, it is possible to assess the effect of the safener substance.
(§6) Vessel Trials with Cereals in the Greenhouse
(§7) Mefenpyr applied 1 day prior to the application of herbicide

Sinapis [3] = assay: Herbicidal post-emergence action (Example M); conditions: greenhouse, 320 g of a.i./ha, about 3 weeks
Procedure: as §1, §2

Lolium [4] = assay: Herbicidal pre-emergence action (Example L); conditions: greenhouse, 320 g of a.i./ha, 3 weeks
Excerpt: (§8) Herbicidal Pre-Emergence Action
(§9) Seeds of monocotyledonous and dicotyledonous weed and crop plants are placed into sandy loam in wood fibre pots and covered with soil. The test compounds, formulated in the form of wettable powders (WP), are then, in various dosages as aqueous suspension with a water application rate of 600 l/ha (converted), with 0.2% of wetting agent added, applied to the surface of the covering soil.
(§10) After the treatment, the pots are placed in a greenhouse and kept under good growth conditions for the test plants. The visual assessment of the emergence damage on the test plants is carried out after a trial period of 3 weeks by comparison with untreated controls (herbicidal effect in percent (%): 100% effect=the plants have died, 0% effect=like control plants).

Setaria [5] = assay: Herbicidal pre-emergence action (Example L); conditions: greenhouse, 320 g of a.i./ha, 3 weeks
Excerpt: as §8, §9, §10

Sinapis [6] = assay: Herbicidal pre-emergence action (Example L); conditions: greenhouse, 320 g of a.i./ha, 3 weeks
Excerpt: as §8, §9, §10

Stellaria = assay: Herbicidal pre-emergence action (Example L); conditions: greenhouse, 320 g of a.i./ha, 3 weeks
Excerpt: as §8, §9, §10

summer barley = assay: Herbicidal post-emergence action, vessel trials with cereals in the greenhouse, use of safeners (Example N); conditions: without safener
Procedure: as §1, §3, §4, §5, §6, §7

Tetranychus urticae [7] = assay: Tetranychus test (OP-resistant/dip treatment); conditions: 4 ppm; dip treatment; bean plants (Table B)
Procedure: Tetranychus Test (OP-Resistant/Dip Treatment)
(§11) To produce a suitable preparation of active compound, 1 part by weight of active compound is mixed with the stated amounts of solvent and emulsifier, and the concentrate is diluted with emulsifier-containing water to the desired concentration.
Bean plants (Phaseolus vulgaris), which are heavily infested by all stages of the greenhouse red spider mite (Tetranychus urticae), are dipped into a preparation of active compound of the desired concentration.
(§12) After the desired period of time, the activity in % is determined. 100% means that all spider mites have been killed; 0% means that none of the spider mites have been killed.

Myzus persicae = assay: Myzus test (spray treatment); conditions: 100 g/ha, Chinese cabbage discs
Procedure: Myzus Test (Spray Treatment)
as §11
Discs of Chinese cabbage (Brassica pekinensis), which are infested by all stages of the green peach aphid (Myzus persicae), are sprayed with a preparation of active compound of the desired concentration.
After the desired period of time, the effect in % is determined. 100% means that all aphids have been killed; 0% means that none of the aphids have been killed.

Phaedon cochleariae = assay: Phaedon test (spray treatment); conditions: 100 g/ha, Chinese cabbage discs
Procedure: Phaedon Test (Spray Treatment) [table] To produce a suitable preparation of active compound, 1 part by weight of active compound is mixed with the stated amounts of solvents and emulsifier, and the concentrate is diluted with emulsifier-containing water to the desired concentration. Discs of Chinese cabbage (Brassica pekinensis) are sprayed with a preparation of active compound of the desired concentration and, after they have dried, populated with larvae of the mustard beetle (Phaedon cochleariae).

Tetranychus urticae [8] = assay: Tetranychus test (OP-resistant/spray treatment); conditions: 100 g/ha; spray treatment; bean leaf discs
Procedure: Tetranychus Test (OP-Resistant/Spray Treatment)
To produce a suitable preparation of active compound, 1 part by weight of active compound is mixed with the stated amounts of solvents and emulsifier, and the concentrate is diluted with emulsifier-containing water to the desired concentration.
Discs of bean leaves (Phaseolus vulgaris) which are infested by all stages of the greenhouse red spider mite (Tetranychus urticae) are sprayed with a preparation of active compound of the desired concentration.
as §12

Amaranthus = assay: Herbicidal pre-emergence action (Example L); conditions: greenhouse, 320 g of a.i./ha, 3 weeks
Excerpt: as §8, §9, §10

## CCc1cc(C)cc(Br)c1C1=C(OC(=O)C(C)C)C2(CCCCC2)NC1=O [Example I-b-3]
Avena sativa
  herbicidal effect in percent, Avena sativa: 100%
Lolium [1]
  herbicidal effect in percent, Lolium: 90%
Setaria [2]
  herbicidal effect in percent, Setaria: 100%
Summer wheat; 12.5 g of a.i./ha
  summer wheat observed (%): 10%
Summer wheat; 25 g of a.i./ha
  summer wheat observed (%): 20%
Summer wheat; 50 g of a.i./ha
  summer wheat observed (%): 75%

## CCOC(=O)OC1=C(c2c(Cl)cc(C)cc2CC)C(=O)NC12CCC(OC)CC2 (single isomer, unassigned) [Example I-c-4]
Avena sativa
  herbicidal effect in percent, Avena sativa: 100%
Lolium [1]
  herbicidal effect in percent, Lolium: 100%
Setaria [2]
  herbicidal effect in percent, Setaria: 100%
Sinapis [3]
  herbicidal effect in percent, Sinapis: 80%
Lolium [4]
  herbicidal effect in percent, Lolium: 80%
Setaria [5]
  herbicidal effect in percent, Setaria: 90%
Sinapis [6]
  herbicidal effect in percent, Sinapis: 70%
Stellaria
  herbicidal effect in percent, Stellaria: 80%
Summer barley; 12.5 g of a.i./ha
  summer barley observed (%): 20%
Summer barley; 25 g of a.i./ha
  summer barley observed (%): 70%
Summer wheat; 12.5 g of a.i./ha
  summer wheat observed (%): 60%

## CCOC(=O)OC1=C(c2c(Br)cc(C)cc2CC)C(=O)NC12CCCCC2 [I-c-2]
Avena sativa
  herbicidal effect in percent, Avena sativa: 90%
Lolium [1]
  herbicidal effect in percent, Lolium: 90%
Setaria [2]
  herbicidal effect in percent, Setaria: 80%

## CCc1cc(C)cc(Br)c1C1=C(O)C2(CCC(OC)CC2)NC1=O (single isomer, unassigned) [Example I-a-3]
Tetranychus urticae [7]
  Kill rate in % after 7d: 50%
Myzus persicae
  Kill rate in % after 5d: 100%
Phaedon cochleariae
  Kill rate in % after 7d: 100%
Tetranychus urticae [8]
  Kill rate in % after 5d: 90%
Avena sativa
  herbicidal effect in percent, Avena sativa: 100%
Lolium [1]
  herbicidal effect in percent, Lolium: 100%
Setaria [2]
  herbicidal effect in percent, Setaria: 100%
Sinapis [3]
  herbicidal effect in percent, Sinapis: 80%
Amaranthus
  herbicidal effect in percent, Amaranthus: 80%
Lolium [4]
  herbicidal effect in percent, Lolium: 80%
Setaria [5]
  herbicidal effect in percent, Setaria: 100%
Summer barley; 25 g of a.i./ha
  summer barley observed (%): 20%
Summer barley; 50 g of a.i./ha
  summer barley observed (%): 90%
Summer barley; 100 g of a.i./ha
  summer barley observed (%): 95%
Summer wheat; 25 g of a.i./ha
  summer wheat observed (%): 60%

## CCc1cc(C)cc(Br)c1C1=C(OC(=O)C(C)(C)C)C2(CCCCC2)NC1=O [I-b-4]
Avena sativa
  herbicidal effect in percent, Avena sativa: 80%
Lolium [1]
  herbicidal effect in percent, Lolium: 90%
Setaria [2]
  herbicidal effect in percent, Setaria: 90%

## CCOC(=O)OC1=C(c2c(Br)cc(C)cc2CC)C(=O)NC12CCC(OC)CC2 (single isomer, unassigned) [I-c-3]
Myzus persicae
  Kill rate in % after 5d: 80%
Tetranychus urticae [8]
  Kill rate in % after 5d: 80%
Avena sativa
  herbicidal effect in percent, Avena sativa: 100%
Lolium [1]
  herbicidal effect in percent, Lolium: 100%
Setaria [2]
  herbicidal effect in percent, Setaria: 100%
Sinapis [3]
  herbicidal effect in percent, Sinapis: 70%
Amaranthus
  herbicidal effect in percent, Amaranthus: 100%
Lolium [4]
  herbicidal effect in percent, Lolium: 100%
Setaria [5]
  herbicidal effect in percent, Setaria: 100%

## CCc1cc(C)cc(Br)c1C1=C(O)C2(CCCCC2)NC1=O [I-a-2]
Avena sativa
  herbicidal effect in percent, Avena sativa: 80%
Lolium [1]
  herbicidal effect in percent, Lolium: 90%
Setaria [2]
  herbicidal effect in percent, Setaria: 100%

## CCc1cc(C)cc(Br)c1C1=C(OC(=O)COC)C2(CCC(OC)CC2)NC1=O (single isomer, unassigned) [Example I-b-5]
Myzus persicae
  Kill rate in % after 5d: 80%
Tetranychus urticae [8]
  Kill rate in % after 5d: 70%
Avena sativa
  herbicidal effect in percent, Avena sativa: 100%
Lolium [1]
  herbicidal effect in percent, Lolium: 100%
Setaria [2]
  herbicidal effect in percent, Setaria: 100%
Sinapis [3]
  herbicidal effect in percent, Sinapis: 70%
Lolium [4]
  herbicidal effect in percent, Lolium: 100%
Setaria [5]
  herbicidal effect in percent, Setaria: 90%
Sinapis [6]
  herbicidal effect in percent, Sinapis: 80%
Summer barley; 12.5 g of a.i./ha
  summer barley observed (%): 35%
Summer barley; 25 g of a.i./ha
  summer barley observed (%): 65%
Summer barley; 50 g of a.i./ha
  summer barley observed (%): 98%

## CCc1cc(C)cc(Br)c1C1=C(OC(=O)COC)C2(CCCCC2)NC1=O [Example I-b-2]
Avena sativa
  herbicidal effect in percent, Avena sativa: 90%
Lolium [1]
  herbicidal effect in percent, Lolium: 100%
Setaria [2]
  herbicidal effect in percent, Setaria: 100%
Summer wheat; 12.5 g of a.i./ha
  summer wheat observed (%): 20%
Summer wheat; 25 g of a.i./ha
  summer wheat observed (%): 70%
Summer wheat; 50 g of a.i./ha
  summer wheat observed (%): 98%
